Patent publication US20180043059A1, “3D Ti-6Al-4V Structures with Hydrogel Matrix” (priority 2016, published 2018)
“Also recorded” adds a separate entry of the source. Read-outs that look alike come from different tables or passages of the source.

Columns and labels:
[1] = test system: MC3T3-E1 pre-osteoblast cells
MC3T3-E1 cells [2] = test: Combinatorial dose of DFM and D(+) glucose, MTS viability, MC3T3-E1; assay type: cell-based, mouse; conditions: 5 mM glucose, 24 hours
Description: (§1) Cells that undergo hypoxia mimetic stress mediated by Hif-1α have been reported to increase their metabolic demands. To test how metabolic demands change in cells exposed to DFM, both HUVECs and MC3T3-E1 cells were exposed to 3.2 μM DFM, 5 mM D(+) glucose and a combination of 3.2 μM DFM+5 mM D(+) glucose for 24 hours. A negative control consisted of both cell types without treatment. The viability of cells was determined by MTS viability assay. The purpose of this approach is to determine whether D(+) glucose can be used as an additive in the hydrogel matrix to improve wound healing and help drive vascularization and osteogenesis process.

HUVECs [3] = test: Combinatorial dose of DFM and D(+) glucose, MTS viability, HUVECs; assay type: cell-based, Human; conditions: 5 mM glucose, 24 hours
Description: as §1

MC3T3-E1 cells [4] = test: Fluorescent microscopy of pre-osteoblasts grown in Ti-6Al-4V foam under DFM; assay type: cell-based, mouse; conditions: 3.2 μM DFM (low concentration), 21 days
Description: Pre-osteoblasts seeded on foam structures were cultured for 7 days to test for similar cell behavior as reported by Nune et al. Cells were seeded at 200,000 cells/well in a 12 well plate, 1 mL total media volume and then stained with Hoechst 33342 cell nuclei dye. A second experiment was performed once the appropriate concentration of DFM was selected. Pre-osteoblasts are seeded at the previously described concentration in the same conditions but exposed to 3.2 μM DFM. Proliferation is observed after 21 days exposure. A second stain is performed with Vybrant® CFDA SE Cell Tracer Kit to visually determine the viability of cells without disturbing the layer of cells grown in the foams. Because the scaffold is solid metal, light cannot be transmitted through it if fully dense. However, due to the foam nature of the scaffold, light may be transmitted though the medium and a visible image can be obtained if the metal section is thin enough. Despite the fact that a thin section makes fluorescent microscopy feasible, since the scaffold is 3D, focus is lost in the z axis and there is a lack of clarity for morphological details. Improvements on microscopy can be done by using Confocal Microscopy instead of Fluorescent Microscopy in order to view in more detail cellular morphology and microcapillary formation. […]

MC3T3-E1 cells [5] = test: Alizarin Red S (ARS) mineralization assay; assay type: cell-based, mouse
Source text: Because it is expected that pre-osteoblasts differentiate into osteoblasts under a hypoxic condition, cells should mineralize calcium in the ECM. The study of mineralization of ECM can be viewed as a measure or potential for bone formation. In this regard, Alizarin Red Assay (ARS) (Sigma-Aldrich) is used qualitatively and quantitatively to indicate the presence of calcium in the matrix. […] The negative control for this experiment is cells grown in 3D printed foams in complete media with no added glutamate. After incubation, the samples are washed carefully with PBS without disturbing the cell layer and fixed with 4% paraformaldehyde for 30 minutes. The 3D foam structures were then stained with alizarin red (pH˜4.1) in the dark and at room temperature for 30 minutes. Samples are qualitatively studied via light microscope after rinsing with PBS. The calcium nodules should appear red. To conduct quantitative analysis, 10% cetyl pyridinium chloride will be added to remove the alizarin red stain. The absorbance of the solution is measured at 570 nm OD with a spectrophotometric microplate reader.

HUVECs [6] = test: Total protein content (Bradford); assay type: cell-based, Human; conditions: endothelial cells exposed to DFM
Description: Cells are grown for 6 h, 24 h and 48 h in the presence of DFM at the previously specified 1:5 dilutions. After the desired time periods they are washed with cold 1×PBS and lysed with Radioimmunoprecipitation (RIPA) protein lysis buffer (0.2% Triton X-100+protease inhibitor cocktail) for 30 min in an ice bath. The total protein content in the cells is estimated using the Bradford spectrophotometric protein assay. Briefly, 10 μL of the cell lysate will be mixed with 100 μL of Bradford Reagent (Sigma) and re-suspended to homogenize the solution on a 96 well plate. The absorbance will be measured at 595 nm. A standard plot of absorbance as a function of bovine serum albumin (BSA) concentration will be obtained to determine the concentration value of the experimental and control samples.

Hif-1α = test: Western blot analysis of Hif-1α in HUVECs exposed to DFM; assay type: cell-based, Human
Description: To further quantify the expression of specific proteins, a western blot analysis is performed for Hif-1α and VEGF165. The western blot analysis was made using the cell lysate previously described. A Sodium Dodecyl Sulfate-Polyacrylamide Gel Electrophoresis (SDS-PAGE) was made (7.5% acrylamide for Hif-1α (93 kDa) and 12% acrylamide for VEGF165 (38 kDa)). The separated proteins are then transferred to a PVDF membrane. The Hif-1α antibody at a 1:1,000 dilution in 1% BSA in 1×TBST buffer was incubated for one hour at room temperature, followed by three 10 min washes with TBST. A secondary anti-rabbit IgG HRP conjugated antibody was incubated for 30 minutes at room temperature, followed also by subsequent washes with TB ST.

HUVECs [7] = conditions: cited from earlier work
MC3T3-E1 cells [8] = test system: MC3T3-E1 cells
HUVECs [9] = test: Induction of angiogenesis (capillary formation) in Matrigel and in foams with gel; assay type: cell-based, Human
Description: It has been previously reported that MC3T3-E1 pre-osteoblast cells undergo differentiation and proliferation when grown in porous foams in glutamine containing media. It has been extensively reported that endothelial cells are able to form capillaries in gels when exposed to DFM [28]. In this experiment, a live angiogenesis monitoring experiment is performed in order to analyze capillarity maturation and cell survival. This analysis is achieved by staining HUVECs with PHK26 Red Fluorescent Dye (Sigma) and MC3T3-E1 cells with PKH67 Green fluorescent dye (Sigma). Both dyes stain cell membranes in an unspecific way, while maintaining cellular viability for an extended period of time. MC3T3-E1 cells are grown in foams as described above, but under hypoxic conditions (3.2 μM DFM). The Ti-6Al-4V foams are pre-incubated with pre-osteoblasts for a total of 7 days, with a negative hypoxia control being cells without any DFM. The cells grown on the foams and gel are monitored throughout the duration of this experiment. The foams are removed from the wells and placed in a 12 well plate and Matrigel® (Corning Life Sciences) will be added until the foam is completely covered. In order to observe microcapillarity formation upon exposure of HUVECs to DFM, the manufacturer specifications are followed. Briefly, Matrigel® is thawed according to specifications (4° C. overnight) and added to a 24 well cell culture plate and allowed to gelate also according to specifications (30-60 minutes at 37° C.). […] The cell suspension is incubated at 37° C., 5% CO2 for 16 to 18 hours on the Matrigel coated plate for 16-18 hours. The formation of microcapillaries is measured by confocal microscopy.

Molecule: CoCl2
- MTS metabolism [1]: greatly increases
- cellular metabolism (MTS) across drug concentrations [1]: almost no variation in cellular metabolism
- viability at lower concentrations (summary) [1]: E1 cells exposed to DFM. Viability increases

Molecule: O=C[C@H](O)[C@@H](O)[C@H](O)[C@H](O)CO [D(+) glucose]
- viability response to additional D(+) glucose (MC3T3-E1 cells [2]): not
- viability response to additional D(+) glucose (HUVECs [3]; compared with MC3T3-E1, listed as D(+) Glucose): Augments Viability Faster
- viability response to additional D(+) glucose (HUVECs [3]; compared with MC3T3-E1, listed as glucose): more positive response

Molecule: CC(=O)N(O)CCCCCNC(=O)CCC(=O)N(O)CCCCCNC(=O)CCC(=O)N(O)CCCCCN.CS(=O)(=O)O [DFM, Deferoxamine Mesylate]
- proliferation of pre-osteoblasts in the foam (Hoechst 33342 staining) (MC3T3-E1 cells [4]): proliferating
- cellular production of hydroxyapatite, cells grown in foams (MC3T3-E1 cells [5]; Ti-6Al-4V foams, 3.2 μM DFM): enhanced; also recorded: DFM enhances the cellular production of
- synthesis levels of hydroxyapatite versus control (MC3T3-E1 cells [5]; foams, 3.2 μM DFM, 14 days): increase on par in both settings
- amount of cellular hydroxyapatite versus control (MC3T3-E1 cells [5]; foams, 3.2 μM DFM, 21 days, FIG. 6): dramatically increases
- amount of hydroxyapatite versus control (MC3T3-E1 cells [5]; foams, 3.2 μM DFM, initially (7 days)): comparatively similar amounts of hydroxyapatite to control cells
- production of mineralized calcium / hydroxyapatite, cells grown in plates (MC3T3-E1 cells [5]; plates): increases the production of mineralized calcium; also recorded: DFM enhances the cellular production of
- expression of mineralized calcium (ARS) (MC3T3-E1 cells [5]; plates, 640 nM DFM, 21 days, FIG. 5): highest expression of mineralized calcium
- expression of hydroxyapatite compared to control cells (MC3T3-E1 cells [5]; plates, 640 nM DFM, every instance (7, 14, 21 days)): always in greater amount
- levels of total protein synthesized (HUVECs [6]): No obvious changes
- total intracellular Hif-1α bands (Hif-1α; 48 hours exposure): still producing definitive bands
- Hif-1α levels with increasing DFM concentration (summary) (Hif-1α; HUVECs): Hif-1α levels increased with increasing DFM
- Hif-1α expression (Hif-1α; high doses (2 mM) vs normoxia): notably increase
- cellular metabolism (MTS) across drug concentrations ([1]; 24 hours exposure): almost no variation in cellular metabolism
- MTS metabolism ([1]; exposure equal or longer than 72 hours): greatly increases
- viability at lower concentrations (summary) ([1]; lower concentrations): E1 cells exposed to DFM. Viability increases
- cellular viability (summary) ([1]; mouse): Cellular viability does not decrease in MC3T3-
- DFM concentration that can stimulate a survival response (HUVECs [7]; previous reports): ~10 µM
- DFM concentration at which HUVECs undergo angiogenesis (HUVECs [7]; previously reported): approximately 10 μM
- cellular proliferation (cell count) (MC3T3-E1 cells [8]; 24 hour exposure, remaining dilutions, compared to unexposed control): constant cell population numbers, with a slight decrease in numbers
- cellular proliferation (cell count) (MC3T3-E1 cells [8]; lowest concentrations (3.2 μM and 640 nM)): observable increase in proliferation
- maintenance of capillary structure (HUVECs [9]; HUVECs exposed to 2 mM DFM in Matrigel): maintain their structure for an extended period of time
- capillary formation in Matrigel (HUVECs [9]; HUVECs exposed to 2 mM DFM, 18 hour period, not apparent in control without DFM): readily formed capillaries; also recorded: HUVECs readily undergo migration to form
- vascular structure formation in foams with gel (HUVECs [9]; Ti-6Al-4V foam + Matrigel with pre-incubated MC3T3-E1, HUVECs treated with 2 mM DFM, FIG. 7): HUVECs readily undergo migration to form
